# Laboratory results from ChEMBL document CHEMBL1126485, “Synthesis of nucleoside analogues with a 1,5-anhydrohexitol moiety” (1993).
# How the values were obtained:
# Human alphaherpesvirus 2 = experiment: Concentration required for inhibition of proliferation of herpes simplex virus type II at 0.07 ug/mL.; assay type: functional
# [1] = Concentration required for inhibition of proliferation of herpes simplex virus type I at 0.07 ug/mL.; assay type: functional; details: Human alphaherpesvirus 1
smiles,measurement,setting,value
O=c1[nH]c(=O)n(C2COC(CO)C(O)C2)cc1I (configuration not stated),inhibition at 0.07 µg/mL,Human alphaherpesvirus 2,50%
same,inhibition at 0.07 µg/mL,[1],50%
